Results: patent US20250282803A1, “DIDEHYDRO-3'-DEOXY-4'-ETHYNYLTHYMIDINES AND RELATED COMPOUNDS AND THEIR USE IN TREATING MEDICAL CONDITIONS” (ROME Therapeutics, Inc., priority 2022, published 2025)

Assays:
[1] = biological target: T1, LINE1 reverse transcriptase (Homo sapiens, UniProt O00370); assay: Stable artificial-intron Cis LINE1 reporter assay; assay type: cell-based; parameters: host or cells: HeLa Tet-On 3G; conditions: stable HeLa Tet-On 3G L1 reporter cells, doxycycline 500 ng/mL, 72 h; Firefly Luciferase activity
Description: Exemplary compounds were tested for ability to inhibit LINE1 reverse transcriptase using a stable artificial-intron Cis LINE1 reporter assay. Assay procedures and results are described below.
A stable HeLa Tet-On 3G (Takara, cat no 631183) cell line expressing a bi-directional inducible LINE1 construct was generated as described in Xie, Y. et al. “Cell division promotes efficient retrotransposition in a stable L1 reporter cell line,” Mobile DNA (2013) 4:10. Single cell clones were screened for high Luciferase expression and the highest expression Firefly expressing clone was chosen for compound testing.
Test compounds were serially diluted in DMSO and spotted in 96-well plates. Subsequently the HeLa L1 artificial-intron reporter cells were plated into the compound-containing wells (8,000 cells/well), and the cells were induced for reporter expression with doxycycline (Sigma cat no D9891) at a final concentration of 500 ng/mL. Luminescence was measured 72 h after plating using the Dual-Glo Luciferase Assay System (Promega cat no E2940) following the manufacturer's instructions. The Firefly Luciferase activity was used to report LINE1 activity.

[2] = biological target: T1, LINE1 reverse transcriptase; assay: Transient artificial-intron Cis LINE1 reporter assay; assay type: cell-based; conditions: HEK 293 cells, transient transfection; ratio FLuc/RLuc reports LINE1 activity
Description: The following compound (hereinafter “Test Compound”) was tested for ability to inhibit LINE1 reverse transcriptase using a transient artificial-intron Cis LINE1 reporter assay:
Additional exemplary compounds were also tested for ability to inhibit LINE1 reverse transcriptase using a transient artificial-intron Cis LINE1 reporter assay. Assay procedures and results are described below.
Intron-disrupted Firefly luciferase (FLuc) expression cassettes were generated as described by Xie, Y. et al. “Characterization of L1 retrotransposition with high-throughput dual-luciferase assays,” Nucleic Acid Res. (2011) Vol. 39, No. 3, e16. In addition, the plasmid contained an intact Renilla luciferase (RLuc) expression cassette on the vector backbone, in order to normalize transfection efficiency and measure potential cell toxicity.
HEK 293 cells were seeded in 96-well plates at 1,000 cells/well in 55 μL and grown for 24 hours. Cells were transfected with FuGeneHD (Promega) following the manufacturer's protocol. Each well received 0.133 ng plasmid, 0.4 μL FuGeneHD reagent, and 4.5 μL GlutaMAX-I-supplemented Opti-MEM I reduced-serum medium (Invitrogen). Cells were simultaneously treated with test compound serially diluted starting at 100 μM in a 3-fold dilution dose response.
Luminescence was measured using the Dual-Glo Luciferase Assay System (Promega) following the manufacturer's instructions. The ratio between FLuc and RLuc gene expression was used to report LINE1 activity.

T1 sequence (O00370 whole entry, looked up): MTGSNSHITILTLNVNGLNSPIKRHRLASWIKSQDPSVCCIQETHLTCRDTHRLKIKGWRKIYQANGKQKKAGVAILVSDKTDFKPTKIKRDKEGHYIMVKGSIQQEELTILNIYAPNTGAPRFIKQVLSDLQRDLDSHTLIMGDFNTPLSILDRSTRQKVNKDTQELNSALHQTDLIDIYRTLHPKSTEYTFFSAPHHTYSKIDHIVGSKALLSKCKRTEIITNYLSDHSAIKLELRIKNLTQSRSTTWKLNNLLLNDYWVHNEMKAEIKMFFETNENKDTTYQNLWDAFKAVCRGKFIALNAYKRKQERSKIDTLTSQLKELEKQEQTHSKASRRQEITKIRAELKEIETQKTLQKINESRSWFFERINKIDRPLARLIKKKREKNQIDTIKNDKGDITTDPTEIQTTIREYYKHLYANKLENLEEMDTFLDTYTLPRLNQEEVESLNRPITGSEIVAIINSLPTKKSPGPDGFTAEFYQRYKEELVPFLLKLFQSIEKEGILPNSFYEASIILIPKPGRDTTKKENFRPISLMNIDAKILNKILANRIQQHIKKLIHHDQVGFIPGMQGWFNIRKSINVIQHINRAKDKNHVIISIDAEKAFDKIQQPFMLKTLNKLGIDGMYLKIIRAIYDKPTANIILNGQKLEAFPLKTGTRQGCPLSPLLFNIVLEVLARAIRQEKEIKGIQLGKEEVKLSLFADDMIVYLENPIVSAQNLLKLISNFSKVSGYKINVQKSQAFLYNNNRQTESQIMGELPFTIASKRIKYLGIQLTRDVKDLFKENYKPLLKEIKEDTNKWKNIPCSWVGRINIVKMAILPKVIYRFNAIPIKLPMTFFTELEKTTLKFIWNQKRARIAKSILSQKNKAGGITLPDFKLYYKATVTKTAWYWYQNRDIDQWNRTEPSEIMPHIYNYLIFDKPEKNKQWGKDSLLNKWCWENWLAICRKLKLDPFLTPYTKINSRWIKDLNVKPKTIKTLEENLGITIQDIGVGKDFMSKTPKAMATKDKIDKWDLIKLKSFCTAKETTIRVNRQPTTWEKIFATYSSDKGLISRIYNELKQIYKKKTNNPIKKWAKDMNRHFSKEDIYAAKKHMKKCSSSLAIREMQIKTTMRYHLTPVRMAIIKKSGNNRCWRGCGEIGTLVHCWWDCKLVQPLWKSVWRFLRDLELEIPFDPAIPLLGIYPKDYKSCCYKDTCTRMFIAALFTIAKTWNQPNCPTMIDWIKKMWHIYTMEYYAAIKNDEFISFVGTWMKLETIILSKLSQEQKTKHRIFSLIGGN

| SMILES | IC50 [1] [µM] | IC50 [2] [µM] |
| --- | --- | --- |
| C#C[C@@]1(COP(=O)(N[C@@H](C)C(=O)OC)Oc2ccccc2)C=C[C@H](n2cc(C)c(=O)[nH]c2=O)O1 (mixture of isomers) [Methyl ((((2R,5R)-2-Ethynyl-5-(5-methyl-2,4-dioxo-3,4-dihydropyrimidin-1(2H)-yl)-2,5-dihydrofuran-2-yl)methoxy)(phenoxy)phosphoryl)-L-alaninate] | > 0.5 |  |
| C#C[C@@]1(COP(=O)(OCOC(=O)OC(C)C)OCOC(=O)OC(C)C)C=C[C@H](n2cc(C)c(=O)[nH]c2=O)O1 [IV-1, 1-[(2R,5R)-5-[({di[(isopropoxycarbonyl)oxy]methoxyphosphoryl}oxy)methyl]-5-ethynyl-2H-furan-2-yl]-5-methyl-3H-pyrimidine-2,4-dione] | ≤ 0.05 |  |
| C#C[C@@]1(COP(=O)(NCc2ccccc2)OCCSC(=O)C(C)(C)CO)C=C[C@H](n2cc(C)c(=O)[nH]c2=O)O1 (single isomer, unassigned) [P-Diastereomer 1 from Example 3; II-1 or II-2] | 0.05 to 0.5 | 0.05 to 0.5 |
| C#C[C@@]1(COP(=O)(NC(C)(C)C(=O)OC(C)C)Oc2ccccc2)C=C[C@H](n2cc(C)c(=O)[nH]c2=O)O1 (single isomer, unassigned) [P-Diastereomer 1 from Example 2; II-22 or II-23] | > 0.5 |  |
| C#C[C@@]1(COP(=O)(NCc2ccccc2)OCCSC(=O)C(C)(C)CO)C=C[C@H](n2cc(C)c(=O)[nH]c2=O)O1 (single isomer, unassigned) [P-Diastereomer 2 from Example 3; II-1 or II-2] |  | 0.05 to 0.5 |
| C#C[C@@]1(COP(=O)(NC(C)(C)C(=O)OC(C)C)Oc2ccccc2)C=C[C@H](n2cc(C)c(=O)[nH]c2=O)O1 (single isomer, unassigned) [P-Diastereomer 2 from Example 2; II-22 or II-23] | > 0.5 |  |
| C#C[C@@]1(CO)C=C[C@H](n2cc(C)c(=O)[nH]c2=O)O1 | 0.05 to 0.5 |  |

Continued, values first:

| IC50 [1] [µM] | IC50 [2] [µM] | SMILES |
| --- | --- | --- |
| 0.05 to 0.5 |  | C#C[C@@]1(COP(=O)(N[C@@H](C)C(=O)OC)Oc2ccc(Br)cc2)C=C[C@H](n2cc(C)c(=O)[nH]c2=O)O1 (single isomer, unassigned) [P-Diastereomer 1 from Example 2; I-7 or I-8] |
| 0.05 to 0.5 | 0.05 to 0.5 | C#C[C@@]1(CO[P@](=O)(N[C@@H](C)C(=O)OCC(CC)CC)Oc2ccccc2)C=C[C@H](n2cc(C)c(=O)[nH]c2=O)O1 [Compound I-5, 2-Ethylbutyl ((R)-(((2R,5R)-2-Ethynyl-5-(5-methyl-2,4-dioxo-3,4-dihydropyrimidin-1(2H)-yl)-2,5-dihydrofuran-2-yl)methoxy)(phenoxy)phosphoryl)-L-alaninate] |
| 0.05 to 0.5 | 0.05 to 0.5 | C#C[C@@]1(COP(=O)(N[C@@H](C)C(=O)OCC(C)(C)C)Oc2cccc3ccccc23)C=C[C@H](n2cc(C)c(=O)[nH]c2=O)O1 (single isomer, unassigned) [P-Diastereomer 1 from Example 2; I-16 or III-1] |
| 0.05 to 0.5 |  | C#C[C@@]1(COP(=O)(N[C@@H](C)C(=O)OCc2ccccc2)Oc2ccccc2)C=C[C@H](n2cc(C)c(=O)[nH]c2=O)O1 (mixture of isomers) [Benzyl ((((2R,5R)-2-Ethynyl-5-(5-methyl-2,4-dioxo-3,4-dihydropyrimidin-1(2H)-yl)-2,5-dihydrofuran-2-yl)methoxy)(phenoxy)phosphoryl)-L-alaninate] |
| 0.05 to 0.5 | 0.05 to 0.5 | C#C[C@@]1(CO[P@@](=O)(N[C@@H](C)C(=O)OCC(CC)CC)Oc2ccccc2)C=C[C@H](n2cc(C)c(=O)[nH]c2=O)O1 [Compound I-6, 2-Ethylbutyl ((S)-(((2R,5R)-2-Ethynyl-5-(5-methyl-2,4-dioxo-3,4-dihydropyrimidin-1(2H)-yl)-2,5-dihydrofuran-2-yl)methoxy)(phenoxy)phosphoryl)-L-alaninate] |
| > 0.5 | 0.05 to 0.5 | C#C[C@@]1(CO[P@](=O)(N[C@@H](C)C(=O)OC(C)C)Oc2ccccc2)C=C[C@H](n2cc(C)c(=O)[nH]c2=O)O1 [Compound I-1, Isopropyl ((R)-(((2R,5R)-2-Ethynyl-5-(5-methyl-2,4-dioxo-3,4-dihydropyrimidin-1(2H)-yl)-2,5-dihydrofuran-2-yl)methoxy)(phenoxy)phosphoryl)-L-alaninate] |
| > 0.5 | 0.05 to 0.5 | C#C[C@@]1(CO[P@@](=O)(N[C@@H](C)C(=O)OC(C)C)Oc2ccccc2)C=C[C@H](n2cc(C)c(=O)[nH]c2=O)O1 [Compound I-2, Isopropyl ((S)-(((2R,5R)-2-Ethynyl-5-(5-methyl-2,4-dioxo-3,4-dihydropyrimidin-1(2H)-yl)-2,5-dihydrofuran-2-yl)methoxy)(phenoxy)phosphoryl)-L-alaninate] |
| 0.05 to 0.5 | ≤ 0.05 | C#C[C@@]1(COP(=O)(N[C@@H](C)C(=O)OCC(C)(C)C)Oc2cccc3ccccc23)C=C[C@H](n2cc(C)c(=O)[nH]c2=O)O1 (single isomer, unassigned) [P-Diastereomer 2 from Example 2; I-16 or III-1] |
|  | 0.05 to 0.5 | C#C[C@@]1(COP(=O)(N[C@@H](C)C(=O)OC)Oc2ccc(Br)cc2)C=C[C@H](n2cc(C)c(=O)[nH]c2=O)O1 (single isomer, unassigned) [P-Diastereomer 2 from Example 2; I-7 or I-8] |
